Reference: paper PMC5063977 (The Journal of Biological Chemistry, 2016)

How the values were obtained:
Type in all cases: cell-based
RAMP2-CLR (AM1 receptor) = target: T1, RAMP2-CLR (AM1 receptor) (Homo sapiens, UniProt O60895+Q16602); test: (Ca^2+)i mobilization, HEK-293S cells, RAMP2 + CLR; conditions: HEK293S, percentage of maximal (Ca^2+)i release with 10 μM ionomycin, mean ± S.E., n = 5
T1 construct: FLAG; expressed in transfected cells; host or cells: HEK-293 or HEK-293S cells, transient transfection, 1:1 RAMP:CLR
T1 sequence (Q16602 23-461): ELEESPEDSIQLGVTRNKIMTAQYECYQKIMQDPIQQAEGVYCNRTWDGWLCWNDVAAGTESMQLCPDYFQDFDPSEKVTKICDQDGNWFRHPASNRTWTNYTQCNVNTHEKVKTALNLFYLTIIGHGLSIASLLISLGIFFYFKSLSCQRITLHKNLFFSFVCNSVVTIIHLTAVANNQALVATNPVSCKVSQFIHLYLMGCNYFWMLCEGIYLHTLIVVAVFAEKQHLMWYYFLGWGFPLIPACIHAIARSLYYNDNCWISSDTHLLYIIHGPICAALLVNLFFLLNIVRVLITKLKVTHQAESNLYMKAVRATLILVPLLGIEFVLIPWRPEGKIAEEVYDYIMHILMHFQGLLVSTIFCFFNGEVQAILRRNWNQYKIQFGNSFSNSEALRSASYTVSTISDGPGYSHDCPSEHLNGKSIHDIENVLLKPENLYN
T1 sequence (O60895 43-175): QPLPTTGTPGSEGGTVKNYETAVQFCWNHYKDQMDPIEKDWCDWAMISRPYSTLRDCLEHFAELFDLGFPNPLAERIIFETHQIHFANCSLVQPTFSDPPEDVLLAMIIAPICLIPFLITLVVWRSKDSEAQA
Experimental: (§1) HEK-293 cells were transfected with FuGENE 6 (Roche Applied Science) in accordance with the manufacturer's instructions using a 1:3 (w:v) DNA:FuGENE ratio and a 1:1 ratio of RAMP to CLR. […] The transfected cell lines were grown for 24–48 h prior to assaying.
Transfected HEK-293 cells were grown to confluence in black, clear bottomed, 96-well plates. […] Cells were then washed followed by the addition of 100 μl of Ca^2+-free Hanks' balanced salt solution. […] Recordings were obtained every 0.5 s for 120 s. Peak magnitude was calculated using five-point smoothing followed by correction against background fluorescence. The peak was used to generate concentration-response curves and normalized relative to 10 μM ionomycin.
(§2) Data analysis for cAMP assays was performed in GraphPad Prism 6.0f (San Diego, CA). […] These values were then used to quantify signaling bias as change in log (τ/Ka) relative to the natural cognate ligand for the respective receptor ([41]). […] Statistical differences were analyzed using one-way ANOVA or Student's t test as appropriate with post hoc Bonferroni's or Dunnett's multiple comparisons, and p < 0.05 was considered significant. […] To quantitate the ligand-dependent response in the yeast system, a strain lacking GPA1 (MMY11), grown in rich medium, was used as a standard ([72]). […]

[1] = target: T2, RAMP1-CLR (CGRP receptor) (Homo sapiens, UniProt O60894+Q16602); test: cAMP accumulation, HEK-293S cells, RAMP1 + CLR; conditions: HEK293S, untreated, percentage of maximal cAMP with 100 μM forskolin, mean ± S.E., n = 5
T2 construct: FLAG; expressed in transfected cells; host or cells: HEK-293 or HEK-293S cells, transient transfection, 1:1 RAMP:CLR
T2 sequence (Q16602 23-461): as the sequence (Q16602 23-461) above
T2 sequence (O60894 27-148): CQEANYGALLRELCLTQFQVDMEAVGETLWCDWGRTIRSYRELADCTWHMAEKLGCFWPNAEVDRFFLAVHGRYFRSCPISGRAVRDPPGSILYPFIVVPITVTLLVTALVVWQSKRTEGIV
Experimental: as §1
The transfected HEK-293 cells were washed in PBS, resuspended in stimulation buffer (PBS containing 0.1% BSA and 0.5 mM IBMX), and seeded at 2000 cells/well in 384-well white Optiplates. Ligands were added in the range of 1 pM to 1 mM, and cAMP accumulation was measured after 30 min of stimulation using a LANCE® cAMP detection kit (PerkinElmer Life Sciences). […] Plates were read using a Mithras LB 940 multimode microplate reader (Berthold Technologies). […] Values were converted to concentration using a cAMP standard curve performed in parallel.
as §2

[2] = target: T2, RAMP1-CLR (CGRP receptor); test: S. cerevisiae growth assay, GPA1/Gαs chimera, RAMP1 + CLR; conditions: percentage of yeast strain MMY11 (lacking GPA1); 20 h; mean ± S.E., n = 6
Experimental: FIGURE 1. […] Reporter gene activity was determined following 20 h of stimulation with each ligand. Data are expressed as a percentage of the maximum response observed in yeast strain MMY11 (lacking GPA1) and are means ± S.E. of n individual data sets. […] Data were determined as statistically different from the cognate ligand for each receptor (*, p < 0.05; **, p < 0.01; ***, p < 0.001) using a one-way ANOVA with Bonferroni's post-test.
General yeast procedures were performed as described previously ([22], [24]). The human CLR was introduced into yeast cells under the control of the PGK promoter using a plasmid containing ura3 (pDT-PGK). […] Receptor signaling was measured using the yeast growth assay as described previously ([24]). […] A fluorescein signal was detected as an increase in fluorescence (excitation wavelength = 485 nm, emission wavelength = 535 nm) as a measure of growth. Different concentrations of ligand (0.01 nM–100 μM) were assayed using 96-well plates, and fluorescence was detected using a Tecan Infinite M200 microplate reader (Tecan Ultra Evolution, Reading, UK) or a Mithras LB 940 microplate reader (Berthold Technologies, Harpenden, UK) for 20 h.
Data analysis for cAMP assays was performed in GraphPad Prism 6.0f (San Diego, CA). […] To quantitate the ligand-dependent response in the yeast system, a strain lacking GPA1 (MMY11), grown in rich medium, was used as a standard ([72]). […]

Row | Emax (RAMP2-CLR (AM1 receptor)) [%] | Emax [1] [%] | Emax [2] [%] | Structure (SMILES)
1 | 20.2 ± 2.8 |  |  | CSCC[C@H](NC(=O)[C@H](CC(C)C)NC(=O)[C@H](CCC(N)=O)NC(=O)[C@H](Cc1c[nH]c2ccccc12)NC(=O)[C@H](CC(C)C)NC(=O)[C@H](CCCNC(=N)N)NC(=O)[C@H](Cc1c[nH]cn1)NC(=O)[C@H](CO)NC(=O)[C@H](CC(C)C)NC(=O)[C@H](CC(N)=O)NC(=O)[C@H](CCC(N)=O)NC(=O)[C@@H](NC(=O)[C@H](CCC(N)=O)NC(=O)[C@@H]1CSSC[C@H](NC(=O)CNC(=O)[C@@H](NC(=O)[C@H](CCCNC(=N)N)NC(=O)[C@H](CC(C)C)NC(=O)[C@H](CC(C)C)NC(=O)[C@H](CCC(N)=O)NC(=O)[C@H](C)NC(=O)[C@H](CCC(N)=O)NC(=O)[C@@H](N)[C@@H](C)O)C(C)C)C(=O)N[C@@H](C(C)C)C(=O)N[C@@H](CC(C)C)C(=O)NCC(=O)N[C@@H]([C@@H](C)O)C(=O)N1)C(C)C)C(=O)NCC(=O)N1CCC[C@H]1C(=O)N[C@@H](C)C(=O)NCC(=O)N[C@@H](CCCNC(=N)N)C(=O)N[C@@H](CCC(N)=O)C(=O)N[C@@H](CC(=O)O)C(=O)N[C@@H](CO)C(=O)N[C@@H](C)C(=O)N1CCC[C@H]1C(=O)N[C@H](C(=O)N[C@@H](CC(=O)O)C(=O)N1CCC[C@H]1C(=O)N[C@@H](CO)C(=O)N[C@@H](CO)C(=O)N1CCC[C@H]1C(=O)N[C@@H](Cc1c[nH]cn1)C(=O)N[C@@H](CO)C(=O)N[C@@H](Cc1ccc(O)cc1)C(N)=O)C(C)C [AM2, adrenomedullin 2]
2 |  | 60 ± 3.1 | 20.4 ± 2.8 | CC[C@H](C)[C@H](NC(=O)[C@H](CCC(N)=O)NC(=O)[C@H](Cc1c[nH]cn1)NC(=O)[C@H](C)NC(=O)[C@H](CC(C)C)NC(=O)[C@H](CCCCN)NC(=O)[C@H](CCC(N)=O)NC(=O)[C@@H](NC(=O)[C@@H](NC(=O)[C@@H]1CSSC[C@H](NC(=O)CNC(=O)[C@H](Cc2ccccc2)NC(=O)[C@H](CO)NC(=O)[C@H](CCCNC(=N)N)NC(=O)[C@H](CC(C)C)NC(=O)CNC(=O)[C@H](CCC(N)=O)NC(=O)[C@H](Cc2ccccc2)NC(=O)[C@H](CC(N)=O)NC(=O)[C@H](CC(N)=O)NC(=O)[C@H](CCSC)NC(=O)[C@H](CO)NC(=O)[C@H](CCC(N)=O)NC(=O)[C@H](CCCNC(=N)N)NC(=O)[C@@H](N)Cc2ccc(O)cc2)C(=O)N[C@@H](CCCNC(=N)N)C(=O)N[C@@H](Cc2ccccc2)C(=O)NCC(=O)N[C@@H]([C@@H](C)O)C(=O)N1)[C@@H](C)O)C(C)C)C(=O)N[C@@H](Cc1ccc(O)cc1)C(=O)N[C@@H](CCC(N)=O)C(=O)N[C@@H](Cc1ccccc1)C(=O)N[C@H](C(=O)N[C@@H](CC(=O)O)C(=O)N[C@@H](CCCCN)C(=O)N[C@@H](CC(=O)O)C(=O)N[C@@H](CCCCN)C(=O)N[C@@H](CC(=O)O)C(=O)N[C@@H](CC(N)=O)C(=O)N[C@H](C(=O)N[C@@H](C)C(=O)N1CCC[C@H]1C(=O)N[C@@H](CCCNC(=N)N)C(=O)N[C@@H](CO)C(=O)N[C@@H](CCCCN)C(=O)N[C@H](C(=O)N[C@@H](CO)C(=O)N1CCC[C@H]1C(=O)N[C@@H](CCC(N)=O)C(=O)NCC(=O)N[C@@H](Cc1ccc(O)cc1)C(N)=O)[C@@H](C)CC)C(C)C)[C@@H](C)O [AM, adrenomedullin]
